In US9896418B2, “Aryl ethers and uses thereof” (Peloton Therapeutics, Inc., priority 2013, dated 2018):

Tested on: HIF-2α HIS TAG-PASB Domain
Experiment: HIF-2α Scintillation Proximity Assay (SPA)
Assay type: binding
Details: not given
Experimental: The percent inhibition was determined and IC50 values were calculated using the Dotmatics system based on the following equation: % inhibition=[(high control−sample)/(high control−low control)]×100.

Row | Molecule | IC50 [µM]
1 | C=CCN=S(=O)(c1ccc(Oc2cc(F)cc(C#N)c2)c2c1[C@H](O)C(F)(F)C2)C(F)(F)F (single isomer, unassigned) [Compound 307] | 0.37
2 | CS(=O)(=O)c1ccc(Oc2cncc(C#N)c2)c2c1[C@H](O)C(F)(F)[C@H]2F [Compound 343, 5-(((1S,3S)-2,2,3-trifluoro-1-hydroxy-7-(methylsulfonyl)-2,3-dihydro-1H-inden-4-yl)oxy)nicotinonitrile] | 23.9
3 | N#Cc1cncc(Oc2ccc(S(=O)(=O)CF)c3c2[C@@H](F)C(F)(F)[C@H]3O)c1 [Compound 344, 5-(((1S,3R)-2,2,3-trifluoro-7-((fluoromethyl)sulfonyl)-1-hydroxy-2,3-dihydro-1H-inden-4-yl)oxy)nicotinonitrile] | 0.0067
4 | N#Cc1cncc(Oc2ccc(S(=O)(=O)CF)c3c2[C@H](F)C(F)(F)[C@H]3O)c1 [Compound 345, 5-(((1S,3S)-2,2,3-trifluoro-7-((fluoromethyl)sulfonyl)-1-hydroxy-2,3-dihydro-1H-inden-4-yl)oxy)nicotinonitrile] | 2.18
5 | CS(=O)(=O)c1ccc(Oc2cc(F)cc(C#N)c2)c2c1[C@H](N)C(F)(F)[C@@H]2F [Compound 346] | 0.515
6 | N#Cc1cncc(Oc2ccc(S(=O)(=O)C(F)F)c3c2CC(F)(F)[C@H]3O)c1 [Example 27, (S)-5-((7-((Difluoromethyl)sulfonyl)-2,2-difluoro-1-hydroxy-2,3-dihydro-1H-inden-4-yl)oxy)nicotinonitrile] | 0.25
7 | O=S(=O)(c1ccc(Oc2cc(F)cc(F)c2)c2c1[C@H](O)CC2)C(F)(F)F [Example 55, (R)-4-(3,5-Difluorophenoxy)-7-((trifluoromethyl)sulfonyl)-2,3-dihydro-1H-inden-1-ol] | < 0.005
8 | O[C@@H]1CCc2c(Oc3cc(F)cc(F)c3)ccc(C(F)(F)F)c21 [Example 58, (R)-4-(3,5-Difluorophenoxy)-7-(trifluoromethyl)-2,3-dihydro-1H-inden-1-ol] | < 0.005
9 | CS(=O)(=O)c1ccc(Oc2cncc(Cl)c2)c2c1[C@H](O)C(F)(F)C2 [Example 115, (S)-4-((5-Chloropyridin-3-yl)oxy)-2,2-difluoro-7-(methylsulfonyl)-2,3-dihydro-1H-inden-1-ol] | 0.35
10 | CS(=O)(=O)c1ccc(Oc2cc(F)cc(Cl)c2)c2c1[C@H](O)C(F)(F)C2 [Example 160, (1S)-4-(3-Chloro-5-fluoro-phenoxy)-2,2-difluoro-7-methylsulfonyl-indan-1-ol] | < 0.005
11 | N#Cc1cc(F)cc(Oc2ccc(S(=O)(=O)C(F)(F)F)c3c2CC(F)(F)[C@H]3O)c1 [Example 185, (S)-3-((2,2-Difluoro-1-hydroxy-7-((trifluoromethyl)sulfonyl)-2,3-dihydro-1H-inden-4-yl)oxy)-5-fluorobenzonitrile] | < 0.005
12 | O=S(=O)(c1ccc(Oc2cncc(Cl)c2)c2c1[C@H](O)C(F)(F)C2)C(F)(F)F [Example 186, (S)-4-((5-Chloropyridin-3-yl)oxy)-2,2-difluoro-7-((trifluoromethyl)sulfonyl)-2,3-dihydro-1H-inden-1-ol] | < 0.005
13 | O=S(=O)(CF)c1ccc(Oc2cncc(Cl)c2)c2c1[C@H](O)C(F)(F)C2 [Example 187, (S)-4-((5-Chloropyridin-3-yl)oxy)-2,2-difluoro-7-((fluoromethyl)sulfonyl)-2,3-dihydro-1H-inden-1-ol] | 0.079
14 | CS(=O)(=NC#N)c1ccc(Oc2cc(F)cc(F)c2)c2c1C(O)C(F)(F)C2 (centres unmarked) [Example 191, N-((7-(3,5-difluorophenoxy)-2,2-difluoro-3-hydroxy-2,3-dihydro-1H-inden-4-yl)(methyl)(oxo)-λ^6-sulfanylidene)cyanamide] | < 0.005
15 | CS(=N)(=O)c1ccc(Oc2cc(F)cc(F)c2)c2c1[C@H](O)C(F)(F)C2 (stereo partly drawn) [Example 192, ((S)-7-(3,5-Difluorophenoxy)-2,2-difluoro-3-hydroxy-2,3-dihydro-1H-inden-4-yl)(imino)(methyl)-λ^6-sulfanone] | 0.18
16 | O=S(=O)(c1ccc(Oc2ccc(F)c(Cl)c2)c2c1[C@H](O)C(F)(F)C2)C(F)(F)F [Example 221, (S)-4-(3-Chloro-4-fluorophenoxy)-2,2-difluoro-7-((trifluoromethyl)sulfonyl)-2,3-dihydro-1H-inden-1-ol] | 0.029
17 | N#Cc1cncc(Oc2ccc(S(=O)(=O)C(F)(F)F)c3c2C[C@@H](F)[C@H]3O)c1 [Example 225, 5-(((1S,2R)-2-Fluoro-1-hydroxy-7-((trifluoromethyl)sulfonyl)-2,3-dihydro-1H-inden-4-yl)oxy)nicotinonitrile] | < 0.005
18 | N#Cc1cc(Oc2ccc(S(=O)(=O)C(F)(F)F)c3c2CC(F)(F)[C@H]3O)ccc1F [Example 228, (S)-5-((2,2-Difluoro-1-hydroxy-7-((trifluoromethyl)sulfonyl)-2,3-dihydro-1H-inden-4-yl)oxy)-2-fluorobenzonitrile] | 0.04

Row | Molecule | IC50 [µM]
19 | O=S(=O)(c1ccc(Oc2ccc(F)cc2)c2c1[C@H](O)C(F)(F)C2)C(F)(F)F [Example 230, (S)-2,2-Difluoro-4-(4-fluorophenoxy)-7-((trifluoromethyl)sulfonyl)-2,3-dihydro-1H-inden-1-ol] | 0.028
20 | O=S(=O)(c1ccc(Oc2ccc(F)c(F)c2)c2c1[C@H](O)C(F)(F)C2)C(F)(F)F [Example 233, (S)-4-(3,4-Difluorophenoxy)-2,2-difluoro-7-((trifluoromethyl)sulfonyl)-2,3-dihydro-1H-inden-1-ol] | < 0.005
21 | N#Cc1cccc(Oc2ccc(S(=O)(=O)C(F)F)c3c2CC(F)(F)[C@H]3O)c1 [Example 236, (S)-3-((7-((difluoromethyl)sulfonyl)-2,2-difluoro-1-hydroxy-2,3-dihydro-1H-inden-4-yl)oxy)benzonitrile] | < 0.005
22 | CS(=O)(=NC#N)c1ccc(Oc2cc(F)cc(C#N)c2)c2c1[C@H](O)C(F)(F)C2 (some centres unmarked) [Example 240] | 0.026
23 | O=S(=O)(c1ccc(Oc2cc(Cl)c[n+]([O-])c2)c2c1[C@H](O)C(F)(F)C2)C(F)(F)F [Example 260, (S)-3-Chloro-5-((2,2-difluoro-1-hydroxy-7-((trifluoromethyl)sulfonyl)-2,3-dihydro-1H-inden-4-yl)oxy)pyridine 1-oxide] | 0.066
24 | N#Cc1cc(Oc2ccc(S(=O)(=O)C(F)(F)F)c3c2CC(F)(F)[C@H]3O)c[n+]([O-])c1 [Example 267, (S)-3-cyano-5-((2,2-difluoro-1-hydroxy-7-((trifluoromethyl)sulfonyl)-2,3-dihydro-1H-inden-4-yl)oxy)pyridine 1-oxide] | 0.092
25 | CS(=O)(=O)c1ccc(Oc2cc(F)cc(C#N)c2)c2c1[C@H](O)C(F)(Cl)C2 (stereo partly drawn) [Example 270, 3-(((1S)-2-chloro-2-fluoro-1-hydroxy-7-(methylsulfonyl)-2,3-dihydro-1H-inden-4-yl)oxy)-5-fluorobenzonitrile] | 0.097
26 | CS(=O)(=O)c1ccc(Oc2cc(F)cc(C#N)c2)c2c1[C@H](O)C(F)(F)[C@@H]2F [Example 292, 3-fluoro-5-[(1S,3R)-2,2,3-trifluoro-1-hydroxy-7-methylsulfonyl-indan-4-yl]oxy-benzonitrile] | < 0.005
27 | CS(=O)(=NC#N)c1ccc(Oc2cc(F)cc(C#N)c2)c2c1[C@H](O)[C@H](F)C2 (stereo partly drawn) [Example 302, N-(((2R,3S)-7-(3-cyano-5-fluorophenoxy)-2-fluoro-3-hydroxy-2,3-dihydro-1H-inden-4-yl)(methyl)(oxo)-λ^6-sulfanylidene)cyanamide] | 0.063
28 | N#Cc1cncc(Oc2ccc(C(F)(F)F)c3c2CC(F)(F)[C@H]3O)c1 [Example 303, 5-[(1S)-2,2-difluoro-1-hydroxy-7-(trifluoromethyl)indan-4-yl]oxypyridine-3-carbonitrile] | 0.037
29 | CS(=O)(=O)c1ccc(Oc2cc(F)cc(Br)c2)c2c1[C@H](O)C(F)(F)C2 [Example 304, (S)-4-(3-bromo-5-fluorophenoxy)-2,2-difluoro-7-(methylsulfonyl)-2,3-dihydro-1H-inden-1-ol] | < 0.005
30 | O=S(=O)(c1ccc(Oc2cncc(F)c2)c2c1[C@H](O)C(F)(F)C2)C(F)(F)F [Example 309, (S)-2,2-difluoro-4-((5-fluoropyridin-3-yl)oxy)-7-((trifluoromethyl)sulfonyl)-2,3-dihydro-1H-inden-1-ol] | < 0.005
31 | O=S(=O)(c1ccc(Oc2cc(F)c[n+]([O-])c2)c2c1[C@H](O)C(F)(F)C2)C(F)(F)F [Example 310, (S)-3-((2,2-difluoro-1-hydroxy-7-((trifluoromethyl)sulfonyl)-2,3-dihydro-1H-inden-4-yl)oxonio)-5-fluoropyridine 1-oxide] | 0.016
32 | N#Cc1cncc(Oc2ccc(S(=N)(=O)C(F)(F)F)c3c2CC(F)(F)[C@H]3O)c1 (stereo partly drawn) [Example 314, 5-(((1S)-2,2-difluoro-1-hydroxy-7-(S-(trifluoromethyl)sulfonimidoyl)-2,3-dihydro-1H-inden-4-yl)oxy)nicotinonitrile] | 0.025
33 | (1R,3S)-4-(3-chloro-5-fluorophenoxy)-3-(hydroxymethyl)-7-((trifluoromethyl)sulfonyl)-2,3-dihydro-1H-inden-1-ol [Compound 281] | 0.73
34 | [[(1R,3R)-7-(3-cyano-5-fluoro-phenoxy)-1,2,2-trifluoro-3-hydroxy-indan-4-yl]-methyl-oxo-λ^6-sulfanylidene]cyanamide [Compound 320] | 1.57
35 | [[(1R,3R)-7-(3-cyano-5-fluoro-phenoxy)-1,2,2-trifluoro-3-hydroxy-indan-4-yl]-methyl-oxo-λ^6-sulfanylidene]cyanamide [Compound 322] | 9.8

Tested on: 786-O-Hif-Luc cells
Experiment: Luciferase Assay
Assay type: cell-based
Details: about 24 hours, read-out: Mean Luciferease EC50
Experimental: A pool of infected cells were then selected against 2 μg/mL of puromycin (P8833, Sigma) for 10 days followed by limited dilution to select single clones.
Each concentration was tested in triplicate. After about 24 hours, luciferase activity was determined using ONE-Glo Luciferase Assay Reagent (E6110, Promega) following the manufacturer's recommended procedure. EC50 were calculated by using Dotmatics software.

Row | Molecule | EC50 [µM]
36 | C[C@H]1C[C@@H](O)c2c(S(=O)(=O)C(F)F)ccc(Oc3cc(F)cc(Cl)c3)c21 (racemic) [Compound 7a] | 1
37 | C=CCN=S(=O)(c1ccc(Oc2cc(F)cc(C#N)c2)c2c1[C@H](O)C(F)(F)C2)C(F)(F)F (single isomer, unassigned) [Compound 307] | 1.7
38 | O=S(=O)(c1ccc(Oc2cc(F)cc(Cl)c2)c(Br)c1CO)C(F)F [Compound 74, (2-bromo-3-(3-chloro-5-fluorophenoxy)-6-((difluoromethyl)sulfonyl)phenyl)methanol] | 0.49
